# How the values were obtained:
# HepG2 = assay: Cytotoxicity against human HepG2 cells assessed as reduction in cell viability after 24 hrs by MTT assay; type: functional; details: HepG2, 24 h
# [1] = biological target: Signal transducer and activator of transcription 3 (Homo sapiens) (UniProt P40763); assay: Inhibition of IL-6-stimulated STAT3 (unknown origin) phosphorylation preincubated for 4 hrs followed by IL-6 addition measured after 24 hrs by luciferase reporter gene assay
# [2] = Tmax in Sprague-Dawley rat at 300 mg/kg, po by LC-ESI-IT-TOF/MS analysis; type: ADME, organism-based; details: in vivo
# RAW264.7 = assay: Cytotoxicity against mouse RAW264.7 cells assessed as reduction in cell viability by WST-1 assay; type: functional
# [3] = Inhibition of RANKL/tumour necrosis factor alpha-induced formation of osteoclasts (unknown origin) by tartrate-resistant acid phosphatase staining based assay; type: functional
# Osteoclast = assay: Inhibition of calcitriol-induced formation of Sprague-Dawley rat osteoclasts by […]; type: functional
# HeLa = assay: Induction of apoptosis in human HeLa cells; type: functional, cell-based
# [4] = Inhibition of human T9A4 cells assessed as reduction in cholesterol synthesis after 30 mins in presence of [14C]acetate, [14C]mevanolate, 24,25-dihydro-[24,25-3H2]lanosterol, [3-3H]lathosterol by acetate incorporation assay; type: functional
# DNA topoisomerase 1 = biological target: T1, DNA topoisomerase 1 (Homo sapiens, UniProt P11387); assay: Inhibition of recombinant human topoisomerase-1-mediated relaxation of supercoiled pRYG DNA after 30 mins by ethidium bromide staining based assay
# T1 sequence (P11387 whole entry): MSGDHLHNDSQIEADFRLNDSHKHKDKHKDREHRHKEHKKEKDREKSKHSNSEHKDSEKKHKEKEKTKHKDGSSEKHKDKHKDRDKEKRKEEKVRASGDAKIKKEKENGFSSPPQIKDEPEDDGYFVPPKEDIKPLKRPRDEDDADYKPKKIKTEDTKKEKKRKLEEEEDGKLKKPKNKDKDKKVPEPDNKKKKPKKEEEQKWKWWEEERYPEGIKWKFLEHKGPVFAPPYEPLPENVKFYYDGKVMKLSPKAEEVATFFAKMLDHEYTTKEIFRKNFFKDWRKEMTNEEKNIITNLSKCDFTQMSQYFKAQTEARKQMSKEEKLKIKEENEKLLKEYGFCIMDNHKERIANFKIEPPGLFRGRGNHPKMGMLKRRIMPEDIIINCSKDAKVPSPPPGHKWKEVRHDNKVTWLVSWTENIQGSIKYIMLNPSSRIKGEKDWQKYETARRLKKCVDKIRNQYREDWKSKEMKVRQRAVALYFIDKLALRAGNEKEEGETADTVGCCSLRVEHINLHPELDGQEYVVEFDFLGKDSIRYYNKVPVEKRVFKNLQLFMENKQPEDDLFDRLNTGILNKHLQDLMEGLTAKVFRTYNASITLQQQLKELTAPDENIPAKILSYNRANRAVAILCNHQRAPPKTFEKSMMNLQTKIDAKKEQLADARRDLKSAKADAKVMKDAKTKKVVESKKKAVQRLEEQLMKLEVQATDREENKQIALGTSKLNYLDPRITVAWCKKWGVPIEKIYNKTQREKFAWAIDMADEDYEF
# Chain of Signal transducer and activator of transcription 3 (Homo sapiens) (P40763 whole entry): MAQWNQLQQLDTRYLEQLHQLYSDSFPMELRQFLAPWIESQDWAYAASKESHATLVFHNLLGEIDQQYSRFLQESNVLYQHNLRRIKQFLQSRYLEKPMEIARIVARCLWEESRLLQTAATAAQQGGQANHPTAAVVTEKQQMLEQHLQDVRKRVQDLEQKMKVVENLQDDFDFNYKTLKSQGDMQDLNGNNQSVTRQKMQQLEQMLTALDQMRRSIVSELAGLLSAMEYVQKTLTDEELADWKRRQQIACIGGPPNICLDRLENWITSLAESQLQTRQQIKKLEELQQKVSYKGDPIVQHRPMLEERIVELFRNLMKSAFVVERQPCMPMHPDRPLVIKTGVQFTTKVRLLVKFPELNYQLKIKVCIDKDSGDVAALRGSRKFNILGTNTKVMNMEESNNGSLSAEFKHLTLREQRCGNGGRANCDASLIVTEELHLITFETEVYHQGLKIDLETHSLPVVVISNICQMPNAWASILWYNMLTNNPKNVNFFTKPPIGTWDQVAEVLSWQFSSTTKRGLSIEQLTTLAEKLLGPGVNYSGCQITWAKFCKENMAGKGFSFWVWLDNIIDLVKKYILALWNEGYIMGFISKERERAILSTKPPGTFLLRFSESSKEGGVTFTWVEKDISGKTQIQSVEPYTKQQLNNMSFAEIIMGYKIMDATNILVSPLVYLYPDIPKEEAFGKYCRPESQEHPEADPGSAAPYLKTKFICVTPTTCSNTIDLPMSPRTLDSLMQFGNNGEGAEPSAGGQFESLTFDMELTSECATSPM
structure (smiles),measurement,setting,value
C[C@H](CC(=O)C[C@@H](C)[C@H]1C[C@H](O)[C@@]2(C)C3=C(C(=O)C[C@]12C)[C@@]1(C)CCC(=O)C(C)(C)[C@@H]1C[C@@H]3O)C(=O)O [GANODERIC ACID A],CC50,HepG2,80 µM
same,MIC,[1],60 µM
C[C@H](CC(=O)C[C@@H](C)[C@H]1C[C@H](O)[C@@]2(C)C3=C(C(=O)C[C@]12C)[C@@]1(C)CC[C@H](O)C(C)(C)[C@@H]1C[C@@H]3O)C(=O)O [GANODERIC ACID C2],Tmax,[2],3.9 min
C/C(=C/CC[C@@H](C)[C@H]1CC[C@@]2(C)C3=C(CC[C@]12C)[C@@]1(C)CCC(=O)C(C)(C)[C@@H]1CC3=O)C(=O)O [GANODERIC ACID DM],CC50,RAW264.7,65 µM
same,IC50,[3],30 µM
same,MIC,Osteoclast,10 µg/mL
C[C@H](CC(=O)C[C@H](C)C(=O)O)[C@H]1CC(=O)[C@@]2(C)C3=C(C(=O)C[C@]12C)[C@@]1(C)CCC(=O)C(C)(C)[C@@H]1C[C@@H]3O,IC50,HeLa,17.3 µM
same,CC50,RAW264.7,> 400 µM
same,IC50,[3],400 µM
C/C(=C\CC[C@@H](C)[C@H]1CC[C@@]2(C)C3=CC[C@H]4C(C)(C)[C@@H](O)CC[C@]4(C)C3=CC[C@]12C)C(=O)O [GANODERIC ACID Y],IC50,[4],1.4 µM
CC(=O)O[C@H]1C[C@H]([C@H](C)CC/C=C(\C)C(=O)O)[C@@]2(C)CC=C3C(=CC[C@H]4C(C)(C)[C@H](O)CC[C@]34C)[C@]12C,IC50,DNA topoisomerase 1,25 µM
